According to US11104648B2, “Pyrazole derivative” (Zhejiang Research Institute of Chemical Industry Co., Ltd., priority 2018, dated 2021):
Like-named read-outs stand apart in the source and are kept apart here.

Key:
Type in all cases: in vivo
[1] = test system: Eggs of Tetranychus Cinnabarinus; assay: Activity assay of eggs of Tetranychus cinnabarinus (spray method, ovicidal); conditions: Tetranychus cinnabarinus; for pest or weed control at 2 µg/mL: concentration 2 mg/L; for pest or weed control at 5 µg/mL: concentration 5 mg/L, non-incubated eggs counted as dead
How it was run: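 Ovicidal spray test: compound dissolved in DMF, diluted with 1‰ Tween 80 (DMF ≤10%), sprayed on eggs laid during 24 h by females on broad bean leaves. Culture at 26±2° C, 70–80% RH, 16 h photoperiod; non-hatched eggs scored as dead when blank control hatched; three repeats.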

[2] = test system: adult Tetranychus cinnabarinus; assay: Activity assay of adult Tetranychus cinnabarinus (whole-plant spray on bean seedlings); conditions: 48 h; for pest or weed control at 1.25 µg/mL: concentration 1.25 mg/L; for pest or weed control at 2.5 µg/mL: concentration 2.5 mg/L
How it was run: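 Whole plants sprayed after adult mite inoculation and initial census, using compound dissolved in DMF and made up with 1‰ Tween 80 water (DMF not above 10%). Mortality derived from survivor counts at 48 h after treatment. Each treatment run in triplicate.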

[3] = test system: Tetranychus cinnabarinus Nymphs; assay: Activity assay of Tetranychus cinnabarinus nymphs (spray on broad bean leaves); conditions: 48 h; for pest or weed control at 2 µg/mL: concentration 2 mg/L; for pest or weed control at 2 µg/mL / pest or weed control at 2.5 µg/mL: read-out: nymph-killing activity; for pest or weed control at 2.5 µg/mL: concentration 2.5 mg/L; for pest or weed control at 0.5 µg/mL: nymphs, concentration 0.5 mg/L, parallel determination, read-out: Death rate (%)
How it was run: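 Mortality, judged as no response to gentle touch, was scored 48 h after spraying Tetranychus cinnabarinus nymphs on broad bean leaves (eggs from females removed after 24 h). Test solutions: DMF-dissolved compound, ≤10% DMF, in 1‰ Tween 80; 26±2° C., 70%–80% RH, 16 h light; triplicate, blank control.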

[4] = spray, read-out: ovicidal activity
[5] = eggs, parallel determination, read-out: Death rate (%)
[6] = adult mites, parallel determination, read-out: Death rate (%)
[7] = read-out: adult mite-killing activity

Structure (SMILES)	pest or weed control at 2 µg/mL [1, 4] [%]	pest or weed control at 5 µg/mL [1, 4] [%]	pest or weed control at 2 µg/mL [1, 5] [%]	pest or weed control at 1.25 µg/mL [2, 6] [%]	pest or weed control at 1.25 µg/mL [2, 7] [%]	pest or weed control at 2.5 µg/mL [2, 7] [%]	pest or weed control at 2 µg/mL [3] [%]	pest or weed control at 2.5 µg/mL [3] [%]	pest or weed control at 0.5 µg/mL [3] [%]
CCn1nc(C)cc1/C(OC(C)OC(=O)OCC(C)C)=C(\C#N)c1ccc(C(C)(C)C)cc1 (centres unmarked) [Compound 585]	≥ 90	≥ 90	100	100	≥ 90	≥ 90	≥ 90	≥ 95	96
CCn1nc(C)cc1/C(OC(C)OC(=O)OCCC(C)C)=C(\C#N)c1ccc(C(C)(C)C)cc1 (centres unmarked) [Compound 586]	–	≥ 90	–	–	–	≥ 90	–	≥ 95	–
CCCCCOC(=O)OC(C)O/C(=C(/C#N)c1ccc(C(C)(C)C)cc1)c1cc(C)nn1CC (centres unmarked) [Compound 588]	–	≥ 90	–	–	–	≥ 90	–	≥ 95	–
CCn1nc(C)cc1/C(OC(C)OC(=O)OCCCl)=C(\C#N)c1ccc(C(C)(C)C)cc1 (centres unmarked) [Compound 590]	–	≥ 90	–	–	–	≥ 90	–	≥ 95	–
CCn1nc(C)cc1/C(OC(C)OC(=O)OCC(F)(F)F)=C(\C#N)c1ccc(C(C)(C)C)cc1 (centres unmarked) [Compound 595]	–	≥ 90	–	–	–	≥ 90	–	≥ 95	–
CCn1nc(C)cc1/C(OC(C)OC(=O)OCCOC)=C(\C#N)c1ccc(C(C)(C)C)cc1 (centres unmarked) [Compound 596]	–	≥ 90	–	–	–	≥ 90	–	≥ 95	–
CCn1nc(C)cc1/C(OC(C)OC(=O)OCCSC)=C(\C#N)c1ccc(C(C)(C)C)cc1 (centres unmarked) [Compound 599]	–	≥ 90	–	–	–	≥ 90	–	≥ 95	–
C=CCOC(=O)OC(C)O/C(=C(/C#N)c1ccc(C(C)(C)C)cc1)c1cc(C)nn1CC (centres unmarked) [Compound 602]	≥ 90	≥ 90	–	–	≥ 90	≥ 90	≥ 90	≥ 95	–
C#CCOC(=O)OC(C)O/C(=C(/C#N)c1ccc(C(C)(C)C)cc1)c1cc(C)nn1CC (centres unmarked) [Compound 604]	–	≥ 90	–	–	–	≥ 90	–	≥ 95	–
CCSC(=O)OC(C)O/C(=C(/C#N)c1ccc(C(C)(C)C)cc1)c1cc(C)nn1CC (centres unmarked) [Compound 608]	–	≥ 90	–	–	–	≥ 90	–	≥ 95	–
CCn1nc(C)c(Cl)c1/C(OCOC(=O)OC)=C(\C#N)c1ccc(C(C)(C)C)cc1 [Compound 739]	–	≥ 90	–	–	–	≥ 90	–	≥ 95	–
CCn1nc(C)c(Cl)c1/C(OC(C)OC(=O)OC)=C(\C#N)c1ccc(C(C)(C)C)cc1 (centres unmarked) [Compound 771]	≥ 90	≥ 90	100	100	≥ 90	≥ 90	≥ 90	≥ 95	95
CCOC(=O)OC(C)O/C(=C(/C#N)c1ccc(C(C)(C)C)cc1)c1c(Cl)c(C)nn1CC (centres unmarked) [Compound 772]	≥ 90	≥ 90	100	100	≥ 90	≥ 90	≥ 90	≥ 95	90
CCCCCOC(=O)OC(C)O/C(=C(/C#N)c1ccc(C(C)(C)C)cc1)c1c(Cl)c(C)nn1CC (centres unmarked) [Compound 780]	≥ 90	≥ 90	–	–	≥ 90	≥ 90	≥ 90	≥ 95	–
CCn1nc(C)c(C)c1/C(OCOC(=O)OC)=C(\C#N)c1ccc(C(C)(C)C)cc1 [Compound 931]	≥ 90	≥ 90	98	95	≥ 90	≥ 90	≥ 90	≥ 95	95
CCOC(=O)OCO/C(=C(/C#N)c1ccc(C(C)(C)C)cc1)c1c(C)c(C)nn1CC [Compound 932]	≥ 90	≥ 90	97	90	≥ 90	≥ 90	≥ 90	≥ 95	–
CCCOC(=O)OCO/C(=C(/C#N)c1ccc(C(C)(C)C)cc1)c1c(C)c(C)nn1CC [Compound 933]	≥ 90	≥ 90	–	–	≥ 90	≥ 90	≥ 90	≥ 95	–
CCn1nc(C)c(C)c1/C(OCOC(=O)OCC(C)C)=C(\C#N)c1ccc(C(C)(C)C)cc1 [Compound 937]	≥ 90	≥ 90	100	100	≥ 90	≥ 90	≥ 90	≥ 95	90
CCCCCOC(=O)OCO/C(=C(/C#N)c1ccc(C(C)(C)C)cc1)c1c(C)c(C)nn1CC [Compound 940]	≥ 90	≥ 90	–	–	≥ 90	≥ 90	≥ 90	≥ 95	–
CCn1nc(C)c(C)c1/C(OC(C)OC(=O)OC)=C(\C#N)c1ccc(C(C)(C)C)cc1 (centres unmarked) [Compound 963]	≥ 90	≥ 90	–	–	≥ 90	≥ 90	≥ 90	≥ 95	–
CCn1nc(C)c(C)c1/C(OC(C)OC(=O)OCC(C)C)=C(\C#N)c1ccc(C(C)(C)C)cc1 (centres unmarked) [Compound 969]	≥ 90	≥ 90	–	–	≥ 90	≥ 90	≥ 90	≥ 95	–
